For 13 compounds, IC50 results are on record in US20240148821A1, “PHARMACEUTICAL USE OF CYCLIC PEPTIDE COMPOUND” (CHUGAI SEIYAKU KABUSHIKI KAISHA, priority 2021, published 2024).

Bridge positions count the residues as written; N and C are the ends. Square brackets hold non-standard residues; d marks the D form. Peptide text beside a SMILES is read from it. * marks the point of attachment. hPhe(3-Cl-4-CF3) = N[C@@H](CCc1ccc(C(F)(F)F)c(Cl)c1)C(=O)O; NMePhe(4-CF3) = CN[C@@H](Cc1ccc(C(F)(F)F)cc1)C(=O)O; NMePhe(4-Cl) = CN[C@@H](Cc1ccc(Cl)cc1)C(=O)O; Leu(4,5-dehydro) = C=C(C)C[C@H](N)C(=O)O; NMeAla(cPent) = CN[C@@H](CC1CCCC1)C(=O)O; NMeGly(cPent) = CN[C@H](C(=O)O)C1CCCC1; Phe(3-I) = N[C@@H](Cc1cccc(I)c1)C(=O)O; NMeCha = CN[C@@H](CC1CCCCC1)C(=O)O; NMeD = CN[C@@H](CC(=O)O)C(=O)O; NMeL = CN[C@@H](CC(C)C)C(=O)O; Cba = N[C@@H](CC1CCC1)C(=O)O; dNMeAbu = CC[C@@H](NC)C(=O)O; hLeu = CC(C)CC[C@H](N)C(=O)O; NMeV = CN[C@H](C(=O)O)C(C)C; dNMeS = CN[C@H](CO)C(=O)O; NMeA = CN[C@@H](C)C(=O)O; NMeAib = CNC(C)(C)C(=O)O; Nle = CCCC[C@H](N)C(=O)O; Piperidide = C1CCN(*)CC1; Pra = C#CC[C@H](N)C(=O)O; Ac5c = NC1(C(=O)O)CCCC1; Aze = O=C(O)[C@@H]1CCN1; Isopentyl = CC(C)CC*; Sar = CNCC(=O)O

The assay deals with Human pancreatic cancer cell line AsPC-1 (G12D mutation Kras). Kind of assay: AsPC-1 cell growth inhibition (AsPC-1 CGI). The format is cell-based. The settings on record: read-out: AsPC-1 cell growth inhibition, 50% growth inhibitory concentration (IC50 value); 96 hours, CellTiter-Glo, values classified in ranges.
Method: Test compounds were serially dilated with dimethyl sulfoxide, and 200 nL was then dispensed to a U-bottom 96-well plate using Labcyte Echo. […] The cell suspension was dispensed to a. plate containing a test compound at 100 μL per well and incubated at 37° C. in a 5% carbon dioxide gas incubator. 96 hours later, 80 μL of CellTiter-Glo (Promega) was added to each well and fluorescence was measured.
For `C=C(C)C[C@@H]1NC(=O)[C@H](Cc2cccc(I)c2)NC(=O)CN(C)C(=O)[C@H](Cc2ccc(Cl)cc2)N(C)C(=O)CN(C)C(=O)CN(C)C(=O)[C@H]([C@@H](C)CC)NC(=O)[C@H](CC(C)C)N(C)C(=O)C[C@@H](C(=O)N2CCCCC2)N(C)C(=O)[C@H](CC(C)C)NC(=O)C(C)(C)N(C)C1=O` [Compound 1421] ([NMeL]I[Sar][Sar][NMePhe(4-Cl)][Sar][Phe(3-I)][Leu(4,5-dehydro)][NMeAib]L[NMeD]-Piperidide; lactam N-11), the IC50 was greater than 500 nM. In the case of `CCCC[C@@H]1NC(=O)[C@H](Cc2cccc(I)c2)NC(=O)CN(C)C(=O)[C@H](Cc2ccc(Cl)cc2)N(C)C(=O)CN(C)C(=O)CN(C)C(=O)[C@H]([C@@H](C)CC)NC(=O)[C@H](CC(C)C)N(C)C(=O)C[C@@H](C(=O)N2CCCCC2)N(C)C(=O)[C@H](CC2CCC2)NC(=O)C(C)(C)N(C)C1=O` [Compound 1422] ([NMeL]I[Sar][Sar][NMePhe(4-Cl)][Sar][Phe(3-I)][Nle][NMeAib][Cba][NMeD]-Piperidide; lactam N-11), the IC50 is greater than 500 nM. Turning to `C#CC[C@@H]1NC(=O)[C@H](Cc2cccc(I)c2)NC(=O)CN(C)C(=O)[C@H](Cc2ccc(C(F)(F)F)cc2)N(C)C(=O)[C@@H]2CCN2C(=O)CN(C)C(=O)[C@H]([C@@H](C)CC)NC(=O)[C@H](CC(C)C)N(C)C(=O)C[C@@H](C(=O)N2CCCCC2)N(C)C(=O)[C@H](CC(C)C)NC(=O)C(C)(C)N(C)C1=O` [Compound 1425] ([NMeL]I[Sar][Aze][NMePhe(4-CF3)][Sar][Phe(3-I)][Pra][NMeAib]L[NMeD]-Piperidide; lactam N-11), the IC50 is greater than 500 nM. Under `C#CC[C@@H]1NC(=O)[C@H](Cc2cccc(I)c2)NC(=O)CN(C)C(=O)[C@H](Cc2ccc(Cl)cc2)N(C)C(=O)CN(C)C(=O)CN(C)C(=O)[C@H]([C@@H](C)CC)NC(=O)[C@H](CC(C)C)N(C)C(=O)C[C@@H](C(=O)N2CCCCC2)N(C)C(=O)[C@H](CC(C)C)NC(=O)C(C)(C)N(C)C1=O` [Compound 1426] ([NMeL]I[Sar][Sar][NMePhe(4-Cl)][Sar][Phe(3-I)][Pra][NMeAib]L[NMeD]-Piperidide; lactam N-11) stands greater than 500 nM; under `C#CC[C@@H]1NC(=O)[C@H](Cc2cccc(I)c2)NC(=O)CN(C)C(=O)[C@H](Cc2ccc(Cl)cc2)N(C)C(=O)[C@@H]2CCN2C(=O)[C@H](C)N(C)C(=O)[C@H]([C@@H](C)CC)NC(=O)[C@H](CC(C)C)N(C)C(=O)C[C@@H](C(=O)N2CCCCC2)N(C)C(=O)[C@H](CC(C)C)NC(=O)C(C)(C)N(C)C1=O` [Compound 1428] ([NMeL]I[NMeA][Aze][NMePhe(4-Cl)][Sar][Phe(3-I)][Pra][NMeAib]L[NMeD]-Piperidide; lactam N-11), greater than 500 nM; under `C=C(C)C[C@@H]1NC(=O)[C@H](Cc2cccc(I)c2)NC(=O)CN(C)C(=O)[C@H](Cc2ccc(Cl)cc2)N(C)C(=O)[C@@H]2CCN2C(=O)[C@H](C)N(C)C(=O)[C@H]([C@@H](C)CC)NC(=O)[C@H](CC(C)C)N(C)C(=O)C[C@@H](C(=O)N2CCCCC2)N(C)C(=O)[C@H](CC(C)C)NC(=O)C(C)(C)N(C)C1=O` [Compound 1429] ([NMeL]I[NMeA][Aze][NMePhe(4-Cl)][Sar][Phe(3-I)][Leu(4,5-dehydro)][NMeAib]L[NMeD]-Piperidide; lactam N-11), greater than 500 nM. Take `CCCC[C@@H]1NC(=O)[C@H](Cc2cccc(I)c2)NC(=O)CN(C)C(=O)[C@H](CC2CCCC2)N(C)C(=O)[C@@H]2CCN2C(=O)[C@H](C)N(C)C(=O)[C@H]([C@@H](C)CC)NC(=O)[C@H](CC(C)C)N(C)C(=O)C[C@@H](C(=O)N2CCCCC2)N(C)C(=O)[C@H](CC(C)C)NC(=O)C(C)(C)N(C)C1=O` [Compound 1432] ([NMeL]I[NMeA][Aze][NMeAla(cPent)][Sar][Phe(3-I)][Nle][NMeAib]L[NMeD]-Piperidide; lactam N-11): the IC50 is greater than 500 nM.

Turning to `CCCC[C@@H]1NC(=O)[C@H](Cc2cccc(I)c2)NC(=O)CN(C)C(=O)[C@H](Cc2ccc(C(F)(F)F)cc2)N(C)C(=O)CN(C)C(=O)CN(C)C(=O)[C@H]([C@@H](C)CC)NC(=O)[C@H](CC(C)C)N(C)C(=O)C[C@@H](C(=O)N2CCCCC2)N(C)C(=O)[C@H](CCC(C)C)NC(=O)C(C)(C)N(C)C1=O` [Compound 1433] ([NMeL]I[Sar][Sar][NMePhe(4-CF3)][Sar][Phe(3-I)][Nle][NMeAib][hLeu][NMeD]-Piperidide; lactam N-11), the IC50 is greater than 500 nM.

In the case of `CC[C@@H]1C(=O)NC2(CCCC2)C(=O)N(C)[C@@H](C(C)C)C(=O)N(C)[C@H](C(=O)N2CCCCC2)CC(=O)N(C)[C@@H](CC(C)C)C(=O)N[C@@H]([C@@H](C)CC)C(=O)N(C)[C@@H](C)C(=O)N2CC[C@H]2C(=O)N(C)[C@@H](CC2CCCCC2)C(=O)N(C)CC(=O)N[C@@H](CCc2ccc(C(F)(F)F)c(Cl)c2)C(=O)N1C` [Compound 1438] ([NMeL]I[NMeA][Aze][NMeCha][Sar][hPhe(3-Cl-4-CF3)][dNMeAbu][Ac5c][NMeV][NMeD]-Piperidide; lactam N-11), the IC50 was greater than 500 nM. Under `CC[C@H](C)[C@@H]1NC(=O)[C@H](CC(C)C)N(C)C(=O)C[C@@H](C(=O)N2CCCCC2)N(C)C(=O)[C@H](C2CCCC2)N(C)C(=O)C2(CCCC2)NC(=O)[C@@H](COCCC(C)C)N(C)C(=O)[C@H](CCc2ccc(C(F)(F)F)c(Cl)c2)NC(=O)CN(C)C(=O)[C@H](CC2CCCCC2)N(C)C(=O)CN(C)C(=O)CN(C)C1=O` [Compound 1440] ([NMeL]I[Sar][Sar][NMeCha][Sar][hPhe(3-Cl-4-CF3)][dNMeS](Isopentyl)[Ac5c][NMeGly(cPent)][NMeD]-Piperidide; lactam N-11) stands greater than 500 nM; under `CC[C@@H]1C(=O)NC2(CCCC2)C(=O)N(C)[C@@H](C2CCCC2)C(=O)N(C)[C@H](C(=O)N2CCCCC2)CC(=O)N(C)[C@@H](CC(C)C)C(=O)N[C@@H]([C@@H](C)CC)C(=O)N(C)[C@@H](C)C(=O)N2CC[C@H]2C(=O)N(C)[C@@H](CC2CCCCC2)C(=O)N(C)CC(=O)N[C@@H](CCc2ccc(C(F)(F)F)c(Cl)c2)C(=O)N1C` [Compound 1441] ([NMeL]I[NMeA][Aze][NMeCha][Sar][hPhe(3-Cl-4-CF3)][dNMeAbu][Ac5c][NMeGly(cPent)][NMeD]-Piperidide; lactam N-11), greater than 500 nM; under `CC[C@H](C)[C@@H]1NC(=O)[C@H](CC(C)C)N(C)C(=O)C[C@@H](C(=O)N2CCCCC2)N(C)C(=O)[C@H](C2CCCC2)N(C)C(=O)C2(CCCC2)NC(=O)[C@@H](COCCC(C)C)N(C)C(=O)[C@H](CCc2ccc(C(F)(F)F)c(Cl)c2)NC(=O)CN(C)C(=O)[C@H](CC2CCCCC2)N(C)C(=O)[C@@H]2CCN2C(=O)[C@H](C)N(C)C1=O` [Compound 1443] ([NMeL]I[NMeA][Aze][NMeCha][Sar][hPhe(3-Cl-4-CF3)][dNMeS](Isopentyl)[Ac5c][NMeGly(cPent)][NMeD]-Piperidide; lactam N-11), greater than 500 nM. `CC[C@H](C)[C@@H]1NC(=O)[C@H](CC(C)C)N(C)C(=O)C[C@@H](C(=O)N2CCCCC2)N(C)C(=O)[C@H](C(C)C)N(C)C(=O)C2(CCCC2)NC(=O)[C@@H](CO)N(C)C(=O)[C@H](CCc2ccc(C(F)(F)F)c(Cl)c2)NC(=O)CN(C)C(=O)[C@H](CC2CCCCC2)N(C)C(=O)[C@@H]2CCN2C(=O)[C@H](C)N(C)C1=O` [Compound 1444] ([NMeL]I[NMeA][Aze][NMeCha][Sar][hPhe(3-Cl-4-CF3)][dNMeS][Ac5c][NMeV][NMeD]-Piperidide; lactam N-11): the IC50 was greater than 500 nM.
